For one assay, the system named is mouse T lymphocytes. The assay is described as follows: T-cell proliferation assay (ionomycin plus PMA induced, tritiated thymidine uptake). Format: cell-based, mouse (C57Bl/6). As for the experimental part: The principle of this assay is to measure the proliferation of mouse T lymphocytes stimulated with the combination of ionomycin plus PMA. A positive sample in this assay will inhibit T-cell proliferation, as indicated by reduced tritiated thymidine uptake.
Purified demethomycin, as prepared by HPLC above, was dissolved in absolute ethanol at 1 mg/ml.
Spleens from C57Bl/6 mice were taken under sterile conditions and gently dissociated in ice-cold RPMI 1640 culture medium (GIBCO, Grand Island, N.Y.) supplemented with 10% heat-inactivated fetal calf serum (GIBCO). Cells were pelleted by centrifugation at 1500 rpm for 8 minutes. Contaminating red cells were removed by treating the pellet with ammonium chloride lysing buffer (GIBCO) for 2 minutes at 4° C. Cold medium was added and cells were again centrifuged at 1500 rpm for 8 minutes. T lymphocytes were then isolated by separation of the cell suspension on nylon wool columns as follows: Nylon wool columns were prepared by packing approximately 4 grams of washed and dried nylon wool into 20 ml plastic syringes. The columns were sterilized by autoclaving at 250° F. for 30 minutes. Nylon wool columns were wetted with warm (37° C.) culture medium and rinsed with the same medium. Washed spleen cells resuspended in warm medium were slowly applied to the nylon wool. The columns were then incubated in an upright position at 37° C. for 1 hour. Non-adherent T lymphocytes were eluted from the columns with warm culture medium and the cell suspensions were spun as above.
Purified T lymphocytes were resuspended at 2.5×10^5 cells/ml in complete culture medium composed of RPMI 1640 medium with 10% neat-inactivated fetal calf serum, […], 1 mM sodium pyruvate, 2×10^-5 M 2-mercaptoethanol and 50 μg/ml gentamycin. Ionomycin was added at 250 ng/ml and PMA at 10 ng/ml. The cell suspension was immediately distributed into 96 well flat-bottom microculture plates (Costar) at 200 μl/well. The control, being the medium without test drug, and various below-indicated dilutions of the sample (above-describedpurified demethomycin; to be tested were then added in triplicate wells at 20 μl/well. L-679,934 was used as a standard. The culture plates were then incubated at 37° C. in a humidified atmosphere of 5% CO2 -95% air for 44 hours. The proliferation of T lymphocytes was assessed by measurement of tritiated thymidine incorporation. After 44 hours of culturing, the cells were pulse-labelled with 2 μCi/well of tritiated thymidine (NEN, Cambridge, MA). After another 4 hours of incubation, cultures were harvested on glass fiber filters using a multiple sample narvester. Radioactivity of filter discs corresponding to individual wells was measured by standard liquid scintillation counting methods (Betacounter). Mean counts per minute of replicate wells were calculated and the results expressed as percent inhibition of tritiated thymidine uptake (proliferation) as follows: [formula]
1. Mouse T cell cultures were pulsed with ^3 Hthymidine for 4 hours
prior to harvesting at 48 hours.

The conditions of assay [1]: reputed; immunosuppressant, vs cyclosporin; cited from earlier work.

The structures appear in SMILES notation. Where “and” joins values, the source holds several entries; their conditions need not be identical. Equal values may be shown once. Entries after “also recorded” stand apart in the source; their conditions may differ. Read-outs that look alike come from different tables or passages of the source.

Consider `C=CC[C@@H]1/C=C(\C)C[C@H](C)C[C@H](OC)[C@H]2O[C@@](O)(C(=O)C(=O)N3CCCC[C@H]3C(=O)O[C@H](/C(C)=C/[C@@H]3CC[C@@H](O)[C@H](O)C3)[C@H](C)[C@@H](O)CC1=O)[C@H](C)C[C@@H]2OC` [demethomycin, 31-desmethoxy-31-hydroxy-L-679,934], for which the “Reversal of inhibition of T-cell proliferation by recombinant IL2” value with mouse T lymphocytes (50 μ/ml of IL2 (recombinant IL2) added at initiation of culture) is “reversed”. The inhibition at 0.00029 µg/mL in the assay on mouse T lymphocytes (Mus musculus, T-lymphocyte, 0.29 ng/ml, harvest at 48 hours) was 0%. Moreover, the inhibition at 0.00044 µg/mL with mouse T lymphocytes (Mus musculus, T-lymphocyte, 0.44 ng/ml, harvest at 48 hours) amounted to 0%. Besides, the inhibition at 0.00066 µg/mL in the assay on mouse T lymphocytes (Mus musculus, T-lymphocyte, 0.66 ng/ml, harvest at 48 hours) was 36.8%. In the assay on mouse T lymphocytes (Mus musculus, T-lymphocyte, 0.99 ng/ml, harvest at 48 hours), the inhibition at 0.00099 µg/mL came out at 67.1%. In addition, the inhibition at 0.0015 µg/mL in the assay with mouse T lymphocytes (Mus musculus, T-lymphocyte, 1.5 ng/ml, harvest at 48 hours) was 80.5%. Besides, the inhibition at 0.0022 µg/mL with mouse T lymphocytes (Mus musculus, T-lymphocyte, 2.2 ng/ml, harvest at 48 hours) was found to be 92.9%. Moreover, in the assay with mouse T lymphocytes (Mus musculus, T-lymphocyte, 3.3 ng/ml, harvest at 48 hours), the inhibition at 0.0033 µg/mL was 97.2%. The inhibition at 0.005 µg/mL in the assay on mouse T lymphocytes (Mus musculus, T-lymphocyte, 5 ng/ml, harvest at 48 hours) was 98.1%. Further, the IC50 (commonly the midpoint of a concentration-inhibition curve) with mouse T lymphocytes (Mus musculus, T-lymphocyte, T-cell proliferation, harvest at 48 hours, read-out: IC50) was 0.00086 µg/mL and 1.09 nM; with mouse T lymphocytes (Mus musculus, T-lymphocyte, generally in the range, read-out: IC50, general range), 0.6 to 1.2 nM. Moreover, in the assay with mouse T lymphocytes (T-cell proliferation assay), the “immunosuppressive activity / inhibition of T-cell activation (qualitative)” value is “positive inhibition of T-cell activation; also recorded: positive immunosuppressive activity”.
Take `C=CC[C@@H]1/C=C(\C)C[C@H](C)C[C@H](OC)[C@H]2O[C@@](O)(C(=O)C(=O)N3CCCC[C@H]3C(=O)O[C@H](/C(C)=C/[C@@H]3CC[C@@H](O)[C@H](OC)C3)[C@H](C)[C@@H](O)CC1=O)[C@H](C)C[C@@H]2OC` [L-679,934, reference compound]: the inhibition at 0.01 µg/mL with mouse T lymphocytes (Mus musculus, T-lymphocyte, read-out: % inhibition of T-cell proliferation (standard)) was 99%. Further, in assay [1], the “effectiveness relative to cyclosporin” value was 100 times.
